According to US20130022640A1, “IMMUNE MODULATORS RELATING TO FOXO3A” (Secretary, Department of Health and Human Services, priority 2010, published 2013):

Assays:
[1] = test system: TRAMP mice; test: UGT and prostate weights (tumor burden) after TcR-I transfer; assay type: in vivo, mouse; conditions: day 12 after TcR-I transfer, vs control/untreated
Description: (§1) Lymph node (LN) cells from TcR-I mice were prepared in a single-cell suspension. Cell numbers were adjusted to 3×10^6 TcR-I cells to be transferred intravenously (i.v.) into recipient mice. In some experiments, inhibitors to IDO (1-methly-D-tryptophan, 1MDT) and arginase ((S) 2-bronoethyl)-L-cysteine (BEC)) were added to the drinking water every 3 days (5 μg/ml).
(§2) A blocking anti-PD-1 antibody (Ab) (clone RMP1-14) (Yamazaki et al., J. Immunol., 175: 1586-1592 (2005)) was administered by intraperitoneal (i.p.) injection on days 0, 1, and 3 with respect to adoptive transfer of TcR-I T cells (250 μg/injection). Anti-TGF-β Ab was injected i.p. on days −1,0,1 and 2 with respect to TcR-I transfer (500 μg/injection). Anti-CD317 Ab (5 μg) (kindly provided by Dr. Marco Colonna) was injected i.p. on days −1 and 0 with respect to TcR-I transfer (Blasius et al., J. Immunol., 177: 3260-3265 (2006)).
Control antibody or anti-CD317 antibody was injected i.p. into TRAMP mice on days −1 and 0 relative to T cell transfer. Weights of total urogenital tract (UGT) and dissected prostates were obtained at day 12. […]
Given the enhanced effector functions seen following inhibitory molecule blockade, the effect of blocking these suppressive mediators on anti-tumor immunity was tested. […] UGT weights (FIG. 7A) and prostate weights (FIG. 7B) were assessed on day 12 after TcR-I transfer.

[2] = test system: TcR-I T cells; test: In vitro TcR-I proliferation and tolerance with TRAMP DCs and blocking agents; assay type: cell-based, mouse
Description: Naïve TcR-I T cells were used as responder cells in a proliferation assay; 2×10^4 T cells were stimulated with antigen and 2×10^4 isolated prostatic DCs. After 72 h of culture, wells were pulsed with 1 μCi [^3H] thymidine (Amersham, Buckinghamshire, England) for 16 h. The cells were then harvested using a Cell Harvester (Tomtec, Hamden, Conn.) and radioactivity was measured in a Liquid Scintillation Counter (WALLAC MICROBETA™ TriLux, PerkinElmer, Waltham, Mass.).
Naïve TcR-I T cells were co-cultured with DC for 72 hours. TcR-I cells were then re-isolated via negative selection with magnetic beads. To assess tolerance, TcR-I T cells were subjected to secondary stimulation with normal splenocytes and TAg. After 48 hours, wells were pulsed with 1 μCi [^3H] thymidine (Amersham, Buckinghamshire, England) for 12 hours. […] One μCi of [^3H] thymidine per well was added for an additional 16 h and harvested as described above.
(§3) To investigate the effects of blocking IDO in vitro, 1MDT was also added to purified DC cultures to inhibit IDO activity during DC stimulation of TcR-I proliferation (FIG. 6A). Tolerance was assessed by testing secondary stimulation 4 days after primary culture with 1 MDT, a blocking agent to suppressive mediator IDO (FIG. 6D).
To investigate the effects of blocking PD-1 in vitro, anti-PD-1 antibody was added to cultures of TcR-I T cells and TRAMP or WT prostate DCs. Tolerance was assessed by testing secondary stimulation 4 days after primary culture with blocking agents, including anti-PD-1 antibody, to suppressive mediators (FIG. 6D).

[3] = test system: TcR-I T cells; test: In vitro suppressor assay after 4 day culture of TcR-I T cells with TRAMP DC and blocking agents; assay type: cell-based, mouse; conditions: TRAMP DC + agent
Description: Naïve TcR-I T cells were co-cultured with DC for 72 hours. TcR-I cells were then re-isolated via negative selection with magnetic beads. To assess tolerance, TcR-I T cells were subjected to secondary stimulation with normal splenocytes and TAg. After 48 hours, wells were pulsed with 1 μCi [^3H] thymidine (Amersham, Buckinghamshire, England) for 12 hours. To assess suppressor activity, graded numbers of TcR-I T cells were added to 1×10^4 responder 37B7 TRP-2-specific T cells (Singh et al., J. Immunother., 32: 129-139 (2009)), 1×10^5 splenocytes, and 5 μM TRP-2, and incubated for 72 h at 37° C. One μCi of [^3H] thymidine per well was added for an additional 16 h and harvested as described above.
as §3
To investigate the effects of blocking PD-1 in vitro, anti-PD-1 antibody was added to cultures of TcR-I T cells and TRAMP or WT prostate DCs. Tolerance was assessed by testing secondary stimulation 4 days after primary culture with blocking agents, including anti-PD-1 antibody, to suppressive mediators (FIG. 6D). Suppressor activity was also measured after 4 day culture with blocking agents, including anti-PD-1 antibody, and the results are shown in Table 9.

[4] = test system: TcR-I T cells; test: ELISPOT (IFN-γ, granzyme B) of TcR-I T cells re-isolated from treated TRAMP mice; assay type: in vivo, mouse
Description: as §1, §2
Multiscreen plates (Millipore, Billerica, Mass.) were coated with 100 μl of capture Ab (R&D Systems Inc., Minneapolis, Minn.) overnight at 4° C. IFN-γ (1×10^5) or granzyme B (2×10^4) purified Thy 1.1^+ TcR T cells were added to increasing concentrations of TAg560-568. After incubation, plates were washed and processed as previously described (Shafer-Weaver et al., Cancer Research, 69: 6256-6264 (2009)).
It was next determined whether in vivo depletion of TADCs enhanced TcR-I effector function. TADCs were depleted via i.p. injection of anti-CD317 Ab into TRAMP mice. TcR-I T cells were then transferred into TRAMP mice with or without DC depletion. T cells were re-isolated on days 6 (FIGS. 3A and 3B) or 12 (FIGS. 3C and 3D) after transfer to assess CTL effector function.
Selective amino acid catabolism is a previously-described mechanism of immune dysfunction in cancer (Bronte et al., J. Exp. Med., 201: 1257-1268 (2005); Sharma et al., J. Clin. Invest., 117: 2570-2582 (2007); Srivastava et al., Cancer Res., 70: 68-77 (2010)). […]

[5] = 6 days after transfer into TRAMP mice, vs untreated/control Ab

Row | Compound | prostate weight [1] | total urogenital tract (UGT) weight [1] | TADC-stimulated TcR-I proliferation ([2]; agent added to in vitro culture, primary stimulation) | tolerization of TcR-I T cells during co-culture ([2]; secondary stimulation 4 days after primary culture with agent) | % Suppression for Each Source of Primary Stimulation ([3]; Suppressor:Responder 1:1) [%] | % Suppression for Each Source of Primary Stimulation ([3]; Suppressor:Responder 1:2) [%] | % Suppression for Each Source of Primary Stimulation ([3]; Suppressor:Responder 1:4) [%] | % Suppression for Each Source of Primary Stimulation ([3]; Suppressor:Responder 2:1) [%] | IFN-γ secretion by TcR-I T cells [4, 5] | granzyme B secretion by TcR-I T cells [4, 5] | TcR-I T cell antigen responsiveness ([4]; day 12 after transfer / 12 days of treatment, TRAMP mice) | TcR-I responsiveness (block of in vitro tolerization) ([2]; blocking ARG in vitro)
1 | Cn1cc(C[C@@H](N)C(=O)O)c2ccccc21 [1MDT, 1-methyl-D-tryptophan] | statistically significant decrease | statistically significant decrease | enhanced | did not prevent them from becoming tolerized | 20 | 15 | 8 | 30 | significantly increased | significantly increased | loss of antigen responsiveness | –
2 | N=C(NO)NCC[C@H](N)C(=O)O [Nor-NOHA] | – | – | – | – | – | – | – | – | – | – | – | did not enhance TcR-I responsiveness
